Reference: ChEMBL document CHEMBL5143564, “PES derivative PESA is a potent tool to globally profile cellular targets of PES” (Bioorg Med Chem Lett, 2022)
The source made the active and inactive calls. The calls are words filed in the database; no cut-off is given here.

Legend:
DOHH-2 [1] = test: Induction of apoptosis in human DOHH-2 cells assessed as increase in cleaved caspase-3 expression at 0.5 to 12 uM measured after 24 hrs by Western blot analysis; assay type: functional, cell-based; settings: dose 0.5-12 µM
DOHH-2 [2] = test: Induction of autophagy in human DOHH-2 cells assessed as change in transformation of LC3B1 to LC3B2 expression at 12 uM measured after 4 to 24 hrs by Western blot analysis; assay type: functional, cell-based; settings: time 4-24 hrs
DOHH-2 [3] = test: Up regulation of HSP90alpha expression in human DOHH-2 cells at 12 uM measured after 4 to 24 hrs by Western blot analysis; assay type: functional, cell-based; settings: time 4-24 hrs
DOHH-2 [4] = test: Up regulation of HSP90alpha expression in human DOHH-2 cells at 0.5 to 12 uM measured after 24 hrs by Western blot analysis; assay type: functional, cell-based; settings: dose 0.5-12 µM
MDA-MB-453 = test: Cytotoxicity against human MDA-MB-453 cells measured after 72 hrs; assay type: functional, cell-based
[5] = GSH reactivity in pH 7.4 buffer assessed as GSH adduct formation by measuring molecular weight at 1 mM by Q-TOF LC/MS analysis; assay type: physicochemical; settings: pH 7.4, 1000 µM
DOHH-2 [6] = test: Induction of apoptosis in human DOHH-2 cells assessed as increase in cleaved caspase-3 expression at 12 uM measured after 4 to 24 hrs by Western blot analysis; assay type: functional, cell-based; settings: time 4-24 hrs
DOHH-2 [7] = test: Cytotoxicity against human DOHH-2 cells measured after 72 hrs; assay type: functional, cell-based
[8] = GSH reactivity in pH 7.4 buffer assessed as GSH adduct formation at 1 mM by HPLC analysis; assay type: physicochemical; settings: pH 7.4, 1000 µM
DOHH-2 [9] = test: Up regulation of HSP70 expression in human DOHH-2 cells at 12 uM measured after 4 to 24 hrs by Western blot analysis; assay type: functional, cell-based; settings: time 4-24 hrs
HEK-293T = test: Cytotoxicity against HEK293T cells up to 20 uM measured after 24 hrs; assay type: toxicity, cell-based; settings: human
[10] = GSH reactivity in pH 7.4 buffer assessed as GSH adduct formation by measuring half life at 50 uM by near-UV absorbance spectra analysis; assay type: physicochemical; settings: pH 7.4, 50 µM
Homo sapiens [11] = species: Homo sapiens; test: Binding affinity to ADP-bound full-length human HSP70 assessed as Cys603 adduct formation by size exclusion chromatography
DOHH-2 [12] = test: Induction of apoptosis in human DOHH-2 cells assessed as increase in cleaved PARP expression at 12 uM measured after 4 to 24 hrs by Western blot analysis; assay type: functional, cell-based; settings: time 4-24 hrs
Jurkat [13] = test: Cytotoxicity against human Jurkat T cells measured after 72 hrs; assay type: functional, cell-based
DOHH-2 [14] = test: Up regulation of HSP70 expression in human DOHH-2 cells at 0.5 to 12 uM measured after 24 hrs by Western blot analysis; assay type: functional, cell-based; settings: dose 0.5-12 µM
Jurkat [15] = test: Cytotoxicity against human Jurkat T cells up to 20 uM measured after 24 hrs; assay type: functional, cell-based
DOHH-2 [16] = test: Induction of apoptosis in human DOHH-2 cells assessed as increase in cleaved PARP expression at 0.5 to 12 uM measured after 24 hrs by Western blot analysis; assay type: functional, cell-based; settings: dose 0.5-12 µM
Homo sapiens [17] = species: Homo sapiens; test: Binding affinity to ADP-bound full-length human HSP70 assessed as cysteine adduct formation at SBDalpha domain by measuring half life at 1 mM by fluorescence spectra analysis
DOHH-2 [18] = test: Induction of autophagy in human DOHH-2 cells assessed as reduction in p62 expression at 0.5 to 12 uM measured after 24 hrs by Western blot analysis; assay type: functional, cell-based; settings: dose 0.5-12 µM
DOHH-2 [19] = test: Induction of autophagy in human DOHH-2 cells assessed as change in transformation of LC3B1 to LC3B2 expression at 0.5 to 12 uM measured after 24 hrs by Western blot analysis; assay type: functional, cell-based; settings: dose 0.5-12 µM
DOHH-2 [20] = test: Induction of autophagy in human DOHH-2 cells assessed as reduction in p62 expression at 12 uM measured after 4 to 24 hrs by Western blot analysis; assay type: functional, cell-based; settings: time 4-24 hrs
HepG2 = test: Cytotoxicity against human HepG2 cells measured after 72 hrs; assay type: functional, cell-based
DOHH-2 [21] = test: Cytotoxicity against human DOHH-2 cells up to 20 uM measured after 24 hrs; assay type: functional, cell-based
Homo sapiens [22] = species: Homo sapiens; test: Binding affinity to human HSP70 SBDalpha domain (537 to 610 residues) C574S mutant assessed as Cys603 adduct formation by size exclusion chromatography
DOHH-2 [23] = test: Induction of autophagy in human DOHH-2 cells assessed as change in transformation of LC3B1 to LC3B2 expression at 0.5 to 10 uM measured after 24 hrs by Western blot analysis; assay type: functional, cell-based; settings: dose 0.5-10 µM
DOHH-2 [24] = test: Induction of apoptosis in human DOHH-2 cells assessed as increase in cleaved PARP expression at 0.5 to 10 uM measured after 24 hrs by Western blot analysis; assay type: functional, cell-based; settings: dose 0.5-10 µM
DOHH-2 [25] = test: Up regulation of HSP90alpha expression in human DOHH-2 cells at 0.5 to 10 uM measured after 24 hrs by Western blot analysis; assay type: functional, cell-based; settings: dose 0.5-10 µM
DOHH-2 [26] = test: Induction of autophagy in human DOHH-2 cells assessed as reduction in p62 expression at 10 uM measured after 4 to 24 hrs by Western blot analysis; assay type: functional, cell-based; settings: time 4-24 hrs
DOHH-2 [27] = test: Up regulation of HSP70 expression in human DOHH-2 cells at 10 uM measured after 4 to 24 hrs by Western blot analysis; assay type: functional, cell-based; settings: time 4-24 hrs
DOHH-2 [28] = test: Induction of autophagy in human DOHH-2 cells assessed as reduction in p62 expression at 0.5 to 10 uM measured after 24 hrs by Western blot analysis; assay type: functional, cell-based; settings: dose 0.5-10 µM
DOHH-2 [29] = test: Induction of autophagy in human DOHH-2 cells assessed as change in transformation of LC3B1 to LC3B2 expression at 10 uM measured after 4 to 24 hrs by Western blot analysis; assay type: functional, cell-based; settings: time 4-24 hrs
DOHH-2 [30] = test: Induction of apoptosis in human DOHH-2 cells assessed as increase in cleaved caspase-3 expression at 10 uM measured after 4 to 24 hrs by Western blot analysis; assay type: functional, cell-based; settings: time 4-24 hrs
DOHH-2 [31] = test: Induction of apoptosis in human DOHH-2 cells assessed as increase in cleaved caspase-3 expression at 0.5 to 10 uM measured after 24 hrs by Western blot analysis; assay type: functional, cell-based; settings: dose 0.5-10 µM
DOHH-2 [32] = test: Up regulation of HSP70 expression in human DOHH-2 cells at 0.5 to 10 uM measured after 24 hrs by Western blot analysis; assay type: functional, cell-based; settings: dose 0.5-10 µM
DOHH-2 [33] = test: Induction of apoptosis in human DOHH-2 cells assessed as increase in cleaved PARP expression at 10 uM measured after 4 to 24 hrs by Western blot analysis; assay type: functional, cell-based; settings: time 4-24 hrs
DOHH-2 [34] = test: Up regulation of HSP90alpha expression in human DOHH-2 cells at 10 uM measured after 4 to 24 hrs by Western blot analysis; assay type: functional, cell-based; settings: time 4-24 hrs

Q: What does the source list for `NS(=O)(=O)C#Cc1ccccc1`?
A: Activity (DOHH-2 [1]): Active; Activity (DOHH-2 [2]): Active; Activity (DOHH-2 [3]): Active; Activity (DOHH-2 [4]): Active; Activity (MDA-MB-453): Active; Activity [5]: 489 Da; Activity (DOHH-2 [6]): Active; Activity (DOHH-2 [7]): Active; Activity [8]: Active; Activity (DOHH-2 [9]): Active; Activity (HEK-293T): Non-Toxic; t1/2 [10]: 12.26 min; Activity (Homo sapiens [11]): Active; Activity (DOHH-2 [12]): Active; Activity (Jurkat [13]): Active; Activity (DOHH-2 [14]): Active; Activity (Jurkat [15]): Active; Activity (DOHH-2 [16]): Active; T1/2 (Homo sapiens [17]): 272 min; Activity (DOHH-2 [18]): Active; Activity (DOHH-2 [19]): Active; Activity (DOHH-2 [20]): Active; Activity (HepG2): Active; Activity (DOHH-2 [21]): Active; Activity (Homo sapiens [22]): Active

Q: What does the source list for `NS(=O)(=O)C#Cc1cccc(Cl)c1`?
A: Activity (MDA-MB-453): Active; Activity (DOHH-2 [23]): Active; Activity (DOHH-2 [24]): Active; Activity (DOHH-2 [25]): Active; Activity (DOHH-2 [7]): Active; Activity (DOHH-2 [26]): Active; Activity (DOHH-2 [27]): Active; Activity (HEK-293T): Non-Toxic; Activity (DOHH-2 [28]): Active; t1/2 [10]: 2.97 min; Activity (Homo sapiens [11]): Active; Activity (DOHH-2 [29]): Active; Activity (Jurkat [13]): Active; Activity (Jurkat [15]): Active; Activity (DOHH-2 [30]): Active; Activity (DOHH-2 [31]): Active; T1/2 (Homo sapiens [17]): 59.9 min; Activity (DOHH-2 [32]): Active; Activity (DOHH-2 [33]): Active; Activity (HepG2): Active; Activity (DOHH-2 [21]): Active; Activity (DOHH-2 [34]): Active; Activity (Homo sapiens [22]): Active
